This note sets out measurements from patent US9975907B2, “Pyrimidinones as PI3K inhibitors” (Incyte Corporation, priority 2009, dated 2018).

One assay addresses PI3Kβ (Homo sapiens (Human), UniProt P42338). As to the kind of experiment: PI3K Enzyme Assay A2 ([γ-33P]ATP filter plate), PI3Kβ. Format: biochemical. Particulars: Assay A2, 1000 μM ATP. As to the method:
Materials: Lipid kinase substrate, phosphoinositol-4,5-bisphosphate (PIP2), was purchased from Echelon Biosciences (Salt Lake City, Utah). PI3K isoforms α, β, δ and γ were purchased from Millipore (Bedford, Mass.). ATP, MgCh, DTT, EDTA, MOPS and CHAPS were purchased from Sigma-Aldrich (St. Louis, Mo.). The kinase reaction was conducted in clear-bottom 96-well plate from Thermo Fisher Scientific in a final volume of 24 μL. Inhibitors were first diluted serially in DMSO and added to the plate wells before the addition of other reaction components. The final concentration of DMSO in the assay was 0.5%. The PI3K assays were carried out at room temperature in 20 mM MOPS, pH 6.7, 10 mM MgCl2, 5 mM DTT and CHAPS 0.03%. The reaction mixture was prepared containing 50 μM PIP2, kinase and varying concentration of inhibitors. Reactions were initiated by the addition of ATP containing 2.2 μCi [γ-^33P]ATP to a final concentration of 1000 μM. […] Reactions were incubated for 180 min and terminated by the addition of 100 μL of 1 M potassium phosphate pH 8.0, 30 mM EDTA quench buffer. A 100 μL aliquot of the reaction solution was then transferred to 96-well Millipore MultiScreen IP 0.45 μm PVDF filter plate (The filter plate was prewetted with 200 μL 100% ethanol, distilled water, and 1 M potassium phosphate pH 8.0, respectively). The filter plate was aspirated on a Millipore Manifold under vacuum and washed with 18×200 μL wash buffer containing 1 M potassium phosphate pH 8.0 and 1 mM ATP. After drying by aspiration and blotting, the plate was air dried in an incubator at 37° C. overnight. Packard TopCount adapter (Millipore) was then attached to the plate followed with addition of 120 μL Microscint 20 scintillation cocktail (Perkin Elmer) in each well. After the plate sealing, the radioactivity of the product was determined by scintillation counting on Topcount (Perkin-Elmer). IC50 determination was performed by fitting the curve of percent control activity versus the log of the inhibitor concentration using the GraphPad Prism 3.0 software. […] See Table 1 for data related to compounds of the invention.

Another assay concerns the target PI3Kγ (Homo sapiens (Human), UniProt P48736). As to the kind of experiment: PI3K Enzyme Assay A2 ([γ-33P]ATP filter plate), PI3Kγ. Format: biochemical. The note with it: Assay A2, 1000 μM ATP. As to the method: Materials: Lipid kinase substrate, phosphoinositol-4,5-bisphosphate (PIP2), was purchased from Echelon Biosciences (Salt Lake City, Utah). PI3K isoforms α, β, δ and γ were purchased from Millipore (Bedford, Mass.). ATP, MgCh, DTT, EDTA, MOPS and CHAPS were purchased from Sigma-Aldrich (St. Louis, Mo.).
The kinase reaction was conducted in clear-bottom 96-well plate from Thermo Fisher Scientific in a final volume of 24 μL. Inhibitors were first diluted serially in DMSO and added to the plate wells before the addition of other reaction components. The final concentration of DMSO in the assay was 0.5%. The PI3K assays were carried out at room temperature in 20 mM MOPS, pH 6.7, 10 mM MgCl2, 5 mM DTT and CHAPS 0.03%. The reaction mixture was prepared containing 50 μM PIP2, kinase and varying concentration of inhibitors. Reactions were initiated by the addition of ATP containing 2.2 μCi [γ-^33P]ATP to a final concentration of 1000 μM. The final concentration of PI3K isoforms α, β, δ and γ in the assay were 1.3, 9.4, 2.9 and 10.8 nM respectively. Reactions were incubated for 180 min and terminated by the addition of 100 μL of 1 M potassium phosphate pH 8.0, 30 mM EDTA quench buffer. A 100 μL aliquot of the reaction solution was then transferred to 96-well Millipore MultiScreen IP 0.45 μm PVDF filter plate (The filter plate was prewetted with 200 μL 100% ethanol, distilled water, and 1 M potassium phosphate pH 8.0, respectively). The filter plate was aspirated on a Millipore Manifold under vacuum and washed with 18×200 μL wash buffer containing 1 M potassium phosphate pH 8.0 and 1 mM ATP. After drying by aspiration and blotting, the plate was air dried in an incubator at 37° C. overnight. Packard TopCount adapter (Millipore) was then attached to the plate followed with addition of 120 μL Microscint 20 scintillation cocktail (Perkin Elmer) in each well. After the plate sealing, the radioactivity of the product was determined by scintillation counting on Topcount (Perkin-Elmer). IC50 determination was performed by fitting the curve of percent control activity versus the log of the inhibitor concentration using the GraphPad Prism 3.0 software. […] See Table 1 for data related to compounds of the invention.

The target of assay [1] is T1, PI3Kδ (p110δ/p85α) (Homo sapiens (Human), UniProt O00329). As to the kind of experiment: AlphaScreen Assay for PI3Kδ (Assay A1). The format is biochemical. The note with it: column a, 20 μM ATP. The text has this:
PI3-Kinase luminescent assay kit including lipid kinase substrate, D-myo-phosphatidylinositol 4,5-bisphosphate (PtdIns(4,5)P2)D (+)-sn-1,2-di-O-octanoylglyceryl, 3-O-phospho linked (PIP2), biotinylated I(1,3,4,5)P4, PI(3,4,5)P3 Detector Protein, was purchased from Echelon Biosciences (Salt Lake City, Utah). AlphaScreen™ GST Detection Kit including donor and acceptor beads was purchased from PerkinElmer Life Sciences (Waltham, Mass.). PI3Kδ (p110δ/p85α) was purchased from Millipore (Bedford, Mass.). ATP, MgCb, DTT, EDTA, HEPES and CHAPS were purchased from Sigma-Aldrich (St. Louis, Mo.).
AlphaScreen™ Assay for PI3Kδ
The kinase reaction was conducted in 384-well REMP plate from Thermo Fisher Scientific in a final volume of 40 μL. Inhibitors were first diluted serially in DMSO and added to the plate wells before the addition of other reaction components. The final concentration of DMSO in the assay was 2%. The PI3K assays were carried out at room temperature in 50 mM HEPES, pH 7.4, 5 mM MgCl2, 50 mM NaCl, 5 mM DTT and CHAPS 0.04%. Reactions were initiated by the addition of ATP, the final reaction mixture consisted of 20 μM PIP2, 20 μM ATP, 1.2 nM PI3Kδ were incubated for 20 min. 10 μL of reaction mixture was then transferred to 5 μL 50 nM biotinylated I(1,3,4,5)P4 in quench buffer: 50 mM HEPES pH 7.4, 150 mM NaCl, 10 mM EDTA, 5 mM DTT, 0.1% Tween-20, followed with the addition of 10 μL AlphaScreen™ donor and acceptor beads suspended in quench buffer containing 25 nM PI(3,4,5)P3 detector protein. The final concentration of both donor and acceptor beads is […]. After plate sealing, the plate was incubated in a dark location at room temperature for 2 hours. The activity of the product was determined on Fusion-alpha microplate reader (Perkin-Elmer). IC50 determination was performed by fitting the curve of percent control activity versus the log of the inhibitor concentration using the GraphPad Prism 3.0 software.
In general terms: Bead proximity is the source of the signal in Alpha formats.

Assay [2] concerns the target T1, PI3Kδ (p110δ/p85α). As to the kind of experiment: PI3Kδ Scintillation Proximity Assay (Assay A3). The format is biochemical. The note with it: column b, Assay A3 (SPA), 20 μM ATP. The method, boiled down: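 Human p110δ/p85α (4 nM) with 20 μM diC8-PIP2 and 20 μM ATP plus [γ-33P]ATP, 210 min at room temperature in 20 mM MOPS pH 6.7, 10 mM MgCl2, 5 mM DTT, 0.03% CHAPS, 0.5% DMSO. Product captured on WGA SPA beads in EDTA quench; IC50 from percent-control versus log concentration fit.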

Assay [3] has as its system purified B cells from human PBMC. As to the kind of experiment: B Cell Proliferation Assay. The format is cell-based. Particulars: anti-human IgM stimulated, three days, [3H]-thymidine incorporation. As for the experimental part: To acquire B cells, human PBMC were isolated from the peripheral blood of normal, drug free donors by standard density gradient centrifugation on Ficoll-Hypague (GE Healthcare, Piscataway, N.J.) and incubated with anti-CD19 microbeads (Miltenyi Biotech, Auburn, Calif.). The B cells were then purified by positive immunosorting using an autoMacs (Miltenyi Biotech) according to the manufacturer's instruction.
The purified B cells (2×10^5/well/200 μL) were cultured in 96-well ultra-low binding plates (Corning, Corning, N.Y.) in RPMI1640, 10% FBS and goat F(ab′)2 anti-human IgM (10 μg/ml) (Invitrogen, Carlsbad, Calif.), in the presence of different amount of test compounds, for three days. [^3H]-thymidine (1 μCi/well) (PerkinElmer, Boston, Mass.) in PBS was then added to the B cell cultures for an additional 12 hrs before the incorporated radioactivity was separated by filtration with water through GF/B filters (Packard Bioscience, Meriden, Conn.) and measured by liquid scintillation counting with a TopCount (Packard Bioscience). Compounds having and IC^50 value of 10 μM or less are considered active. See Table 2 for data related to compounds of the invention.
Background: Uptake of a labelled nucleoside into DNA is a usual measure of proliferation.

Assay [4] deals with Pfeiffer cell line (diffuse large B cell lymphoma). The assay is described as follows: Pfeiffer Cell Proliferation Assay. The format is cell-based. The note with it: 3-4 days, [3H]-thymidine incorporation. As for the experimental part: Pfeiffer cell line (diffuse large B cell lymphoma) was purchased from ATCC (Manassas, Va.) and maintained in the culture medium recommended (RPMI and 10% FBS). To measure the anti-proliferation activity of the PI3Kδ submittals, the Pfeiffer cells were plated with the culture medium (2×10^3 cells/well/per 200 μl) into 96-well ultra-low binding plates (Corning, Corning, N.Y.), in the presence or absence of a concentration range of test compounds. After 3-4 days, [^3H]-thymidine (1 μCi/well) (PerkinElmer, Boston, Mass.) in PBS was then added to the cell culture for an additional 12 hrs before the incorporated radioactivity was separated by filtration with water through GF/B filters (Packard Bioscience, Meriden, Conn.) and measured by liquid scintillation counting with a TopCount (Packard Bioscience). See Table 3 for data related to compounds of the invention.

One may read the IC50 as the concentration needed to halve the response being measured.

Structures are written as SMILES. Counter-ions that a name gives are not always drawn.

T1 sequence (O00329 whole entry, species assumed): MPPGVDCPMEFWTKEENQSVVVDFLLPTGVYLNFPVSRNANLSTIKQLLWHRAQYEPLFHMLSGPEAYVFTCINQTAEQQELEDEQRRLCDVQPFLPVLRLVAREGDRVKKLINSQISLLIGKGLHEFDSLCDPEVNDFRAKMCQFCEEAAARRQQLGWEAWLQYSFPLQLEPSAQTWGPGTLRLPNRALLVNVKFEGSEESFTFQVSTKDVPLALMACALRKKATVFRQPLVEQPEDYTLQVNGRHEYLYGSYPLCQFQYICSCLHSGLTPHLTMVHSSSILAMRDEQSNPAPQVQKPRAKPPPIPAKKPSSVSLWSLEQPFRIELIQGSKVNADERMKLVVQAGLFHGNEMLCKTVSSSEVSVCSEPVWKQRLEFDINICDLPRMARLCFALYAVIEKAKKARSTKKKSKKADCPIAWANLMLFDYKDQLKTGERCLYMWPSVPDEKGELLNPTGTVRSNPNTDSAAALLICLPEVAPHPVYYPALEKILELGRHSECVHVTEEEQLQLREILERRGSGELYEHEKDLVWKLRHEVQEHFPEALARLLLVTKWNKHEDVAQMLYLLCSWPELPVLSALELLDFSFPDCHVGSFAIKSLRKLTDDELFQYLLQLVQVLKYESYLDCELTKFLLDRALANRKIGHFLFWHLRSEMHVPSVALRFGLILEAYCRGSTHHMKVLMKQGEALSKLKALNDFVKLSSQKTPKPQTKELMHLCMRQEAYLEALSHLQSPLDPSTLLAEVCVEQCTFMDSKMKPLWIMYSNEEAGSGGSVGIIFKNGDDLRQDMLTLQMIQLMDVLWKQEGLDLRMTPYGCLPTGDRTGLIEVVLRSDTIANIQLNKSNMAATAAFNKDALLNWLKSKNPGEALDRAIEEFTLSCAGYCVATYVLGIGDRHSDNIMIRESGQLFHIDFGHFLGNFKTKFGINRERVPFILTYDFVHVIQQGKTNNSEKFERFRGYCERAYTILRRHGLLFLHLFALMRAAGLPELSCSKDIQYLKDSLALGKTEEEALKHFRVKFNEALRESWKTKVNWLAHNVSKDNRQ
T1 sequence (P27986 whole entry partner, species assumed): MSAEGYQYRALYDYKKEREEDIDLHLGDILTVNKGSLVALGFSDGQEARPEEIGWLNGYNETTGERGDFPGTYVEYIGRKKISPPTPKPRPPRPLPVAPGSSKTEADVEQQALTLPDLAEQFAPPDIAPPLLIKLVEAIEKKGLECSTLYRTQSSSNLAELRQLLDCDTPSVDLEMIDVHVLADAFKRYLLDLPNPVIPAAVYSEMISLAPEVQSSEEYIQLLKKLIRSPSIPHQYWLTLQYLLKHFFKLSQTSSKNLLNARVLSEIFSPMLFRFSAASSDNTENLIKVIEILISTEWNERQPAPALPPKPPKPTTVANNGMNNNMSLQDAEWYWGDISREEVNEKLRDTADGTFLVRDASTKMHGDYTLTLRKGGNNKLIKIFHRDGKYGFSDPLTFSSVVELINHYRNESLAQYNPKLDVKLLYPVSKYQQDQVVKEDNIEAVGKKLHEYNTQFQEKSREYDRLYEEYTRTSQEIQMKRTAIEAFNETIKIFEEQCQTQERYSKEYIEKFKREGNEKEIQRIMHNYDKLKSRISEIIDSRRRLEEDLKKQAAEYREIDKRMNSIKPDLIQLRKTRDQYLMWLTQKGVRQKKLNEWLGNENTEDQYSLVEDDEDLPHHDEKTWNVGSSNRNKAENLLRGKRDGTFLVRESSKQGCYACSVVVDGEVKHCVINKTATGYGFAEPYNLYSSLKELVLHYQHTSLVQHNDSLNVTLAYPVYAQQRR
Sequence of PI3Kγ (P48736 whole entry, species assumed, canonical isoform): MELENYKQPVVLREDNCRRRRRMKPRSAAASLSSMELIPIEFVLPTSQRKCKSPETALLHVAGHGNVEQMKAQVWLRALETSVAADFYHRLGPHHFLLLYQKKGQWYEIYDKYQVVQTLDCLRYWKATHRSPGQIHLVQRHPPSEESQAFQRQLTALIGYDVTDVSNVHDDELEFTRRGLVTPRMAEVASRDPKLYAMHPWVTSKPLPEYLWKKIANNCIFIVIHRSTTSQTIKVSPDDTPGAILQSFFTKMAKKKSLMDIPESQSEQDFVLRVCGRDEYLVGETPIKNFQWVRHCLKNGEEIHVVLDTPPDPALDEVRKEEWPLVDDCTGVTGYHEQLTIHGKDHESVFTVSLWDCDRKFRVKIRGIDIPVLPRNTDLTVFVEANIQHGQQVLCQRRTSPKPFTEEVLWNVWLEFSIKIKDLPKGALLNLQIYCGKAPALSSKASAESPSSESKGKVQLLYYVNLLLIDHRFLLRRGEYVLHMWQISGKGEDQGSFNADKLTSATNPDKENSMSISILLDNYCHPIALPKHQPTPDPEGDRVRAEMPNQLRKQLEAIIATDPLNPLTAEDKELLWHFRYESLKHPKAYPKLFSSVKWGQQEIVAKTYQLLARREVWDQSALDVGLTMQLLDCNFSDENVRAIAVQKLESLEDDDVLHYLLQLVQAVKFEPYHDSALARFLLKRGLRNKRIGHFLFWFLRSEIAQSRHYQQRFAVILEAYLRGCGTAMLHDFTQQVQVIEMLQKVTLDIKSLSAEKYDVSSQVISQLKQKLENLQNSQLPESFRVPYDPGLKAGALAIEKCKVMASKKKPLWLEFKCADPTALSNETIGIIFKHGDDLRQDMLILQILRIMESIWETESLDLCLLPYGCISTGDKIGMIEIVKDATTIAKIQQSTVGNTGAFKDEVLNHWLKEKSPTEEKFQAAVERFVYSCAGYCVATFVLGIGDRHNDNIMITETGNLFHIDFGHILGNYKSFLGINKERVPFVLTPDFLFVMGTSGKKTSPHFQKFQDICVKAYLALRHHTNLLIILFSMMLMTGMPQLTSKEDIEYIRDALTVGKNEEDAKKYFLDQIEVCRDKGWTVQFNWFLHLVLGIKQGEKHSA
Sequence of PI3Kβ (P42338 whole entry, species assumed, canonical isoform): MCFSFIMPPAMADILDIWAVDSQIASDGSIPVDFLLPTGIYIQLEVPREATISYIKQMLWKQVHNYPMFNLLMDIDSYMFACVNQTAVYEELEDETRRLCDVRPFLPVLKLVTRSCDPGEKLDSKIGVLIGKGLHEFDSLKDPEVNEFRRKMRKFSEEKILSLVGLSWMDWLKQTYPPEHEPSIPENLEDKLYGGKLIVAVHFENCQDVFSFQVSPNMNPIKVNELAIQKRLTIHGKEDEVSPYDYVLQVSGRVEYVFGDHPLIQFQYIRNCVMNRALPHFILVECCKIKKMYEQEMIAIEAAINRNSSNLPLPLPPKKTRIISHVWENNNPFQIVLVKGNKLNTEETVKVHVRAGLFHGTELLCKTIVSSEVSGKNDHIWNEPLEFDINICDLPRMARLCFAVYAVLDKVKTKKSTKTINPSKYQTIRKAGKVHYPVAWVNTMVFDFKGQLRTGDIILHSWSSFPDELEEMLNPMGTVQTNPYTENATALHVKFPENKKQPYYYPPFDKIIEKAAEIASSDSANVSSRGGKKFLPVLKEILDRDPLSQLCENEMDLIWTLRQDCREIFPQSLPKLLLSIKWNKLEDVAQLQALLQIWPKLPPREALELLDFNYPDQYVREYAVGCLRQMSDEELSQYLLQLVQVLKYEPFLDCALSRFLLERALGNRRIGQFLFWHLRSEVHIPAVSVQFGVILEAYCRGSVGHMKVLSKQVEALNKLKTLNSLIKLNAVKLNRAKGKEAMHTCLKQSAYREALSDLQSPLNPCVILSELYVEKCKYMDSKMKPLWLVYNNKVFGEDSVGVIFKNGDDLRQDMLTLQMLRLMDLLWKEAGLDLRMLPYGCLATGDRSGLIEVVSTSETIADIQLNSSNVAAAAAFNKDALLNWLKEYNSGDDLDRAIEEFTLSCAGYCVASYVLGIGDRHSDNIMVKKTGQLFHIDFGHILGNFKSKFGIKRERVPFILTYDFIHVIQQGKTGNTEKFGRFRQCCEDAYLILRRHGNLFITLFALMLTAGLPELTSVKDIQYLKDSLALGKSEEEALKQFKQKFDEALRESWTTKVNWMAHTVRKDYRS
Sequence of PI3Kβ (P27986 whole entry partner, species assumed, canonical isoform): as the sequence (P27986 whole entry partner, species assumed) above

In the case of `Cc1csc2nc([C@H](C)Nc3ncnc4[nH]cnc34)c(-c3cccc(F)c3)c(=O)n12` [Example 15, (S)-7-(1-(9H-purin-6-ylamino)ethyl)-6-(3-fluorophenyl)-3-methyl-5H-thiazolo[3,2-a]pyrimidin-5-one], the IC50 on PI3Kβ and on PI3Kγ was over 0.5 µM throughout.
Consider `Cc1csc2nc(C(C)Nc3ncnc4[nH]cnc34)c(-c3cc(F)cc(F)c3)c(=O)n12` (stereo not shown) [Example 12, 6-(3,5-difluorophenyl)-3-methyl-7-[1-(9H-purin-6-ylamino)ethyl]-5H-[1,3]thiazolo[3,2-a]pyrimidin-5-one], for which the IC50 (against PI3Kδ (p110δ/p85α) [1]; at PI3Kδ (p110δ/p85α) [2]; in assay [3]) was under 0.05 µM in each case.
`Cc1cccc2nc(C(C)Nc3ncnc4[nH]cnc34)c(-c3cccc(F)c3)c(=O)n12` (single isomer, unassigned) [Example 71, 3-(3-Fluorophenyl)-6-methyl-2-[1-(9H-purin-6-ylamino)ethyl]-4H-pyrido[1,2-a]pyrimidin-4-one trifluoroacetic acid salt]: the IC50 was under 0.05 µM against PI3Kδ (p110δ/p85α) [2], over 0.5 µM against PI3Kγ and under 0.05 µM in assay [4] (trifluoroacetic acid salt).
On to `Cc1csc2nc(C(C)Nc3nc(N)nc4[nH]cnc34)c(-c3cc(F)cc(F)c3)c(=O)n12` (single isomer, unassigned) [Example 23, 7-{1-[(2-amino-9H-purin-6-yl)amino]ethyl}-6-(3,5-difluorophenyl)-3-methyl-5H-[1,3]thiazolo[3,2-a]pyrimidin-5-one], for which the IC50 against PI3Kδ (p110δ/p85α) [2] is under 0.05 µM; against PI3Kγ, over 0.5 µM; in assay [4] (Homo sapiens, Pfeiffer), under 0.05 µM.
On to `Cc1csc2nc(C(C)Nc3ncnc4[nH]cnc34)c(-c3cccc(F)c3)c(=O)n12` (stereo not shown) [Example 10, 6-(3-fluorophenyl)-3-methyl-7-[1-(9H-purin-6-ylamino)ethyl]-5H-[1,3]thiazolo[3,2-a]pyrimidin-5-one], for which the half-inhibitory concentration (IC50) against PI3Kβ and at PI3Kγ was over 0.5 µM throughout.
